One compound from patent publication US11446254B2, “Drug carrier having self-assembled 3-D nucleic acid nanostructure” (KOREA INSTITUTE OF SCIENCE AND TECHNOLOGY, priority 2014, dated 2022) can be followed below.

In the assay the test system is SCC7 cells. It is filed as in vivo. As to conditions: 18 days therapy.

Experimental: A balb/c nude mouse (5 weeks old, male) was used as an experimental animal group, and a tumor was formed by subcutaneously inoculating SCC7 cells (1.0×10^6 cells suspended in the culture medium) into the left thigh of the mouse. When the tumor volume became approximately 50 mm^3, the tumor was used for the experiment.
For the selective therapy of cancer tissue, DOX was each loaded into L-Td55 and L-Td92, which are a carrier having cancer tissue selectivity.
The therapy experiment was performed by classifying the mice into total six groups (PBS, L-Td55, L-Td92, free DOX, DOX@L-Td55, and DOX@L-Td92), and 7 mice per group were used. Before the therapy was performed each time, the tumor volume and the mouse body weight were measured. In this case, the tumor volume was calculated by a method of (minor axis^2*major axis)/2. Each sample was injected into the caudal vein of the mice completely subjected to measurement (see Slide #2 for concentration), the therapy was performed once every three days, and the therapy was performed total 6 times.

Turning to `COc1cccc2c1C(=O)c1c(O)c3c(c(O)c1C2=O)C[C@@](O)(C(=O)CO)C[C@@H]3O[C@H]1C[C@H](N)[C@H](O)[C@H](C)O1` [free DOX, doxorubicin], the Therapeutic effect result was “slight therapeutic effects”.
